Test results taken from US12414952B2 (Merck Sharp & Dohme LLC, priority 2018, dated 2025).

How the values were obtained:
[1] = molecular target: T1, human A2a adenosine receptor (Homo sapiens (Human), UniProt P29274); experiment: A2a binding affinity using SPA, Method (B); conditions: Method (B): [3H]SCH58261 SPA
Excerpt: (§1) The A2a receptor affinity binding assay measured the amount of binding of a tritiated ligand with high affinity for the A2a adenosine receptor to membranes made from HEK293 or CHO cells recombinantly expressing the human A2a adenosine receptor, in the presence of varying concentrations of a compound of the invention. The data were generated using either filtration binding or a homogenous scintillation proximity assay (SPA).
Method (B): Measurement of A2a Binding Affinity Using SPA
Binding affinity using SPA was conducted as follows. Test compounds (50 nL) were dispensed into individual wells of a 384-well OptiPlate™ well (Perkin Elmer) by Echo® acoustic liquid transfer (Labcyte). 20 μL of 1.25 nM [^3H] SCH58261 ((7-(2-phenylethyl)-5-amino-2-(2-furyl)-pyrazolo-[4,3-e]-1,2,4-triazolo[1,5-c]pyrimidine)) in DPBS assay buffer (Dulbecco's phosphate buffered saline without calcium and magnesium, ThermoFisher Scientific, Cat. No. A1285601) supplemented with 10 mM MgCl2 was added. A2a receptor-expressing membranes were incubated with 20 μg/mL adenosine deaminase (Roche, Cat. No. 10 102 105 001) for 15 min at room temperature. The receptor-expressing membranes were then combined with wheat germ agglutinin-coated yttrium silicate SPA beads (GE Healthcare, Cat. No. RPNQ0023) in a ratio of 1:1000 (w/w) and incubated for 30 min at room temperature. 30 μL of the membrane/bead mixture (0.25 μg and 25 μg per well respectively) were added to the 384-well OptiPlate™ well. To define total and non-specific binding, wells containing 1% DMSO or 1 μM CGS15943 (Tocris Bioscience, Cat. No. 1699) respectively were also included in the experiment. The plate was incubated for one h at room temperature with agitation. The assay plate was then incubated for an h to allow the beads to settle before data were collected using a TopCount® (Perkin Elmer) scintillation counter. After normalization to total and non-specific binding, the percent effect at each compound concentration was calculated. The plot of percent effect versus the log of compound concentration was analyzed electronically using a 4-parameter logistic fit based on the Levenberg-Marquardt algorithm to generate IC50 values.

[2] = molecular target: T1, human A2a adenosine receptor; experiment: A2a binding affinity using an alternative radioligand binding assay, Method (C); conditions: Method (C): [3H]CGS21680, CHO.A2a membranes
Excerpt: as §1
Method (C): Measurement of A2a Binding Affinity Using an Alternative Radioligand Binding Assay
Membranes used in this procedure were made by washing cell cultures twice with DPBS buffer (Dulbecco's phosphate buffered saline without calcium and magnesium, ThermoFisher Scientific, Cat. No. A1285601), and harvesting the cell cultures by mechanical scraping. The cells were collected by centrifugation and re-suspended in 10 mM HEPES, pH 7.4 containing 0.1 mM benzamidine (Sigma, Cat. No. B6506) and 0.1 mM PMSF (phenylmethylsulfonyl fluoride, Sigma, Cat. No. 10837091001). Cells were freeze-thawed twice in a dry ice/ethanol bath and homogenized with 25 to 30 strokes in a glass dounce homogenizer (Wheaton, Cat. No. 357546). Membranes were pelleted at 40,000×g for 20 min at 4° C. and re-suspended in assay buffer (5 mM HEPES, pH 7.4, 5 mM MgCl2; supplemented with 0.1 mM benzamidine) at a protein concentration of 2.6 mg/mL. Protein concentration was determined by the Bio-Rad method (Bio-Rad, Cat. No. 5000002). Membranes were then incubated with adenosine deaminase (final concentration 2U/mL) for 20 min at 37° C. before use in the binding assay.
To perform the binding assay, 50 μg CHO.A2a membranes, 5 nM [^3H]CGS21680 (Perkin Elmer, Cat. No. NET1021), and 1 μL of test compound were combined in individual tubes to a volume of 100 μL. To define total and non-specific binding, wells containing 1% DMSO and 20 μM N-ethylcarboxamidoadenosine (Tocris Bioscience, Cat. No. 1691) respectively, were also included. The samples were incubated for 2 h at 37° C. The samples were filtered rapidly through a glass fiber filter using a cell harvester and washed with cold buffer (10 mM Tris, pH7.4, 5 mM MgCl2). The filter was allowed to dry and individual filters were placed into vials together with liquid scintillant and subjected to scintillation counting. After normalization to total and non-specific binding, the percent effect at each compound concentration was calculated. The plot of percent effect versus the log of compound concentration was analyzed electronically using a 4-parameter logistic fit based on the Levenberg-Marquardt algorithm to generate IC50 values.

[3] = molecular target: T1, human A2a adenosine receptor; experiment: A2a binding affinity using radioligand binding, Method (A); conditions: Method (A): [3H]SCH58261 filtration binding
How it was run: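 Membranes from HEK293 or CHO cells expressing human A2a were preincubated with compound for 15–30 min at room temperature. [3H]SCH58261 was then added (4 nM working dilution) in 50 mM Tris pH 7.4, 10 mM MgCl2, 0.005% Tween20 for 60 min at room temperature. Bound radioactivity after filtration was normalised to total and non-specific binding, and IC50 came from 4-parameter logistic fits.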

[4] = molecular target: human A2b adenosine receptor (Homo sapiens (Human), UniProt P29275); experiment: A2b binding affinity, radioligand filtration binding assay; conditions: tritiated proprietary A2b antagonist, HEK293 membranes
Chain of human A2b adenosine receptor (P29275 whole entry): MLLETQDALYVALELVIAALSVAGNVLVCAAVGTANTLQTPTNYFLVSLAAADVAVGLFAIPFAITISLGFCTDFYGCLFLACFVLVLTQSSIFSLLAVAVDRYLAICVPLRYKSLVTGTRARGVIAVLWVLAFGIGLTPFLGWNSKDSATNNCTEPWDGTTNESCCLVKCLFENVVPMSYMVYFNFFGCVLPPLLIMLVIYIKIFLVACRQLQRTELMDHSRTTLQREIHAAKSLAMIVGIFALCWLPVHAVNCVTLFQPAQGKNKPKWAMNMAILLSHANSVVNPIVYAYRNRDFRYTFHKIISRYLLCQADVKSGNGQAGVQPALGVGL
How it was run: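 Membranes from HEK293 cells recombinantly expressing human A2b were incubated with a tritiated proprietary A2b antagonist, with and without compound. Filter-bound radioactivity was counted by scintillation. Percent effect was normalized to total and non-specific binding, and IC50 came from a 4-parameter logistic fit.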

[5] = molecular target: T1, human A2a adenosine receptor; experiment: A2a receptor affinity binding assay, method not indicated; conditions: method letter not given
Excerpt: Method (A) describes the procedure used to measure A2a binding affinity using radioligand binding. Method (B) describes the procedure used to measure A2a binding affinity using SPA technology. Method (C) describes an alternative procedure used to measure A2a binding affinity using radioligand binding. The method used to measure A2b binding affinity is also described below. The method used to determine the A2a IC50 value reported for each compound in the table is indicated next to the reported value. The A2b IC50 value measured using the A2b binding affinity assay is shown in the table next to the compound under the corresponding A2a value.
as §1

T1 sequence (P29274 whole entry): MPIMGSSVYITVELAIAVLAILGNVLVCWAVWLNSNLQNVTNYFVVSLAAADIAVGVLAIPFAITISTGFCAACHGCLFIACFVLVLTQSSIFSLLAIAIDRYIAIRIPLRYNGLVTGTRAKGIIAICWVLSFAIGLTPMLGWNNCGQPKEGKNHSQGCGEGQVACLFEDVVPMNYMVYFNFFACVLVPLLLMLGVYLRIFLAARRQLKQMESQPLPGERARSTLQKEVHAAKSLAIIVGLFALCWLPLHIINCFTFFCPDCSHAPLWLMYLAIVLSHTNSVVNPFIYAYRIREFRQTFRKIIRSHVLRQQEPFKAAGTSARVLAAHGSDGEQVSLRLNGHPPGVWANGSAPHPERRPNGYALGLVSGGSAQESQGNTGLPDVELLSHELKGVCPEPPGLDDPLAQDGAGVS

Row | Compound | IC50 [1] [nM] | IC50 [2] [nM] | further results
1 | Cc1nc2c(s1)CN(CCc1nc3c(C)c(-c4ncco4)nc(N)n3n1)CC2 [Example 1.8] | 2.4 | – | –
2 | COc1ccccc1-c1cc2nc(CCN3CC(F)(F)C3)nn2c(N)n1 [Example 2.18] | – | 668 | –
3 | COc1cccc(-c2cc3nc(CCN4CC(F)(F)C4)nn3c(N)n2)c1 [Example 2.19] | – | 389 | –
4 | Nc1nc(-c2ccccc2F)cc2nc(CCN3CC(F)(F)C3)nn12 [Example 2.20] | – | 241 | –
5 | Nc1nc(-c2cccc(F)c2)cc2nc(CCN3CC(F)(F)C3)nn12 [Example 2.21] | – | 91.7 | –
6 | Nc1nc(-c2ccc(F)cc2)cc2nc(CCN3CC(F)(F)C3)nn12 [Example 2.22] | – | 275 | –
7 | Nc1nc(-c2ccccc2)cc2nc(CCN3CC(F)(F)C3)nn12 [Example 2.23] | – | 150 | –
8 | Cc1nc2c(s1)CN(CCc1nc3c(C)c(-c4cnco4)nc(N)n3n1)CC2 [Example 2.26] | 6.6 | – | –
9 | Cc1c(-c2ncco2)nc(N)n2nc(Cc3cc[nH]n3)nc12 [Example 7.5, 2-((1H-pyrazol-3-yl)methyl)-8-methyl-7-(oxazol-2-yl)-[1,2,4]triazolo[1,5-c]pyrimidin-5-amine] | 4.7 | – | –
10 | Cc1c(-c2ncco2)nc(N)n2nc(Cc3ccccn3)nc12 [Example 9.6, 8-methyl-7-(oxazol-2-yl)-2-(pyridin-2-ylmethyl)-[1,2,4]triazolo[1,5-c]pyrimidin-5-amine] | 0.7 | – | –
11 | Cc1cccc(Cc2nc3c(C)c(-c4ncco4)nc(N)n3n2)n1 [Example 9.7, 8-methyl-2-((6-methylpyridin-2-yl)methyl)-7-(oxazol-2-yl)-[1,2,4]triazolo[1,5-c]pyrimidin-5-amine] | 0.5 | – | –
12 | Cc1cccnc1Cc1nc2c(C)c(-c3ncco3)nc(N)n2n1 [Example 9.8, 8-methyl-2-((3-methylpyridin-2-yl)methyl)-7-(oxazol-2-yl)-[1,2,4]triazolo[1,5-c]pyrimidin-5-amine] | 0.6 | – | –
13 | Cc1c(-c2ncco2)nc(N)n2nc(CCN3CCc4c(nnn4C45CC(C4)C5)C3)nc12 [Example 17.15, 2-(2-(1-(bicyclo[1.1.1]pentan-1-yl)-1,4,6,7-tetrahydro-5H-[1,2,3]triazolo[4,5-c]pyridin-5-yl)ethyl)-8-methyl-7-(oxazol-2-yl)-[1,2,4]triazolo[1,5-c]pyrimidin-5-amine] | – | – | IC50 [3]: 2.2 nM; IC50 [4]: 32 nM
14 | Cc1c(-c2ncco2)nc(N)n2nc(CCN3CCCC(F)(F)C3)nc12 [Example 17.16, 2-(2-(3,3-difluoropiperidin-1-yl)ethyl)-8-methyl-7-(oxazol-2-yl)-[1,2,4]triazolo[1,5-c]pyrimidin-5-amine] | – | – | IC50 [3]: 1.2 nM; IC50 [4]: 1100 nM
15 | CCOC(=O)c1cnn(CCc2nc3c(C)c(-c4ncco4)nc(N)n3n2)c1 [Example 17.17, ethyl 1-(2-(5-amino-8-methyl-7-(oxazol-2-yl)-[1,2,4]triazolo[1,5-c]pyrimidin-2-yl)ethyl)-1H-pyrazole-4-carboxylate] | – | – | IC50 [3]: 34.9 nM; IC50 [4]: 9670 nM
16 | Cc1c(-c2ccc(F)cc2)nc(N)c2nc(CCN3CCn4c(cnc4C(C)C)C3)nn12 [Example 18.6, 6-(4-fluorophenyl)-2-(2-(3-isopropyl-5,6-dihydroimidazo[1,5-a]pyrazin-7(8H)-yl)ethyl)-5-methyl-[1,2,4] triazolo[1,5-a]pyrazin-8-amine] | – | – | IC50 [5]: 346 nM
17 | Nc1nc(-c2cc(F)ccc2F)c(C2CC2)n2nc(Cc3ccccc3)nc12 [Example 20.5, 2-benzyl-5-cyclopropyl-6-(2,5-difluorophenyl)-[1,2,4]triazolo[1,5-a]pyrazin-8-amine] | – | – | IC50 [3]: 13.5 nM; IC50 [4]: 117 nM
18 | CC(C)n1nnc2c1CCN(CCc1nc3c(C(F)(F)F)c(-c4cccc(F)c4)nc(N)n3n1)C2 [Example 23.7, 7-(3-fluorophenyl)-2-(2-(1-isopropyl-1,4,6,7-tetrahydro-5H-[1,2,3]triazolo[4,5-c]pyridin-5-yl)ethyl)-8-(trifluoromethyl)-[1,2,4]triazolo[1,5-c]pyrimidin-5-amine] | – | – | IC50 [3]: 0.9 nM; IC50 [4]: 52.8 nM
